Among the data in BindingDB's records for doi:10.1016/j.jmb.2005.09.095 (Georgia State University, 2005) are Ki values, retold here.

Holding throughout (test): Protease Inhibition Assay
Holding throughout (details): pH 5; 22 °C

Experiment [1] addresses T1, Dimer of Gag-Pol polyprotein [501-599,Q508K,L534I,L564I,C568A,C596A,G574S] (Human immunodeficiency virus 1, UniProt P03367, C568A/C596A/G574S/L534I/L564I/Q508K).
T1 construct: 501-599
The source says:
(§1) The Ki values were obtained from the IC50 values estimated from an inhibitor dose-response curve with the spectroscopic assay and the chromogenic substrate.

Experiment [2] concerns the target T2, Dimer of Gag-Pol polyprotein [501-599,Q508K,L534I,L564I,C568A,C596A,I551V] (Human immunodeficiency virus 1, UniProt P03367, C568A/C596A/I551V/L534I/L564I/Q508K).
T2 construct: 501-599
Excerpt: as §1

Experiment [3] has as its target T3, Dimer of Gag-Pol polyprotein [501-599,Q508K,L534I,L564I,C568A,C596A,L525I] (Human immunodeficiency virus 1, UniProt P03367, C568A/C596A/L525I/L534I/L564I/Q508K).
T3 construct: 501-599
Excerpt: as §1

For experiment [4], the target named is T4, Dimer of Gag-Pol polyprotein [501-599,Q508K,L534I,L564I,C568A,C596A] (Human immunodeficiency virus 1, UniProt P03367, C568A/C596A/L534I/L564I/Q508K).
T4 construct: 501-599
Excerpt: as §1

One may read the Ki as a measure of affinity in units of concentration, obtained from inhibition or displacement. A higher Ki goes with weaker binding.

The structures appear in SMILES notation. Starred links: 1 amine or outer side, 2 acyl side, 3 side chain; linkers in the order of their positions; H or OH if unused. Non-standard residues stand in square brackets, D forms with d. Residues, ends and D or L forms follow the SMILES beside them. Groups on a side chain read outwards from the residue. N(2S-amino-4-Me-pentyl)Phe = CC(C)C[C@@H](CN([C@@H](Cc1ccccc1)C(=O)[*:2])[*:1])N[*:3]; Nle = CCCC[C@H](N)C(=O)O

On to `CCCC[C@H](NC(=O)[C@H](C)NC(=O)[C@H](CCC(=O)O)NC(=O)[C@H](Cc1ccccc1)NC[C@H](CC(C)C)NC(=O)[C@@H](NC(=O)[C@@H](N)CCCNC(=N)N)C(C)C)C(N)=O` [N-1270] (H-[N(2S-amino-4-Me-pentyl)Phe]([Val-Arg])EA[Nle]-NH2), for which the inhibition constant (Ki) came out at 330 nM in experiment [1], 230 nM in experiment [2], 3.5 nM in experiment [3] and 75 nM in experiment [4].
